US20220152523A1, “Cannabinoid Separation by Countercurrent Chromatography” (priority 2019, published 2022)
Like-named read-outs stand apart in the source and are kept apart here.

[1] = solvent system SS 1: sec-BuOH-1% TFA/water (1:1)
[2] = solvent system SS 3: Hexane-acetone-acetonitrile (5:2:3)
[3] = solvent system SS 4: EtOAc-n-BuOH-water (2:1:3)
[4] = solvent system SS 5: EtOAc-n-BuOH-1% aq. TFA (2:1:3)
[5] = solvent system SS 6: Hexane-EtOAc-MeOH-water (6:1:6:1)
[6] = solvent system Sec-BuOH-water (1:1)

Structure (SMILES)	K, partition coefficient (ratio of upper phase to lower phase) [1]	K, partition coefficient (ratio of upper phase to lower phase) (solvent system SS 2: n-BuOH-1% aq. TFA (1:1))	K, partition coefficient (ratio of upper phase to lower phase) [2]	K, partition coefficient (ratio of upper phase to lower phase) [3]	K, partition coefficient (ratio of upper phase to lower phase) [4]	K, partition coefficient (ratio of upper phase to lower phase) [5]	K, partition coefficient (ratio of upper phase to lower phase) [6]	K, partition coefficient (ratio of upper phase to lower phase) (solvent system n-BuOH-water (1:1))
C=C(C)[C@@H]1CCC(C)=C[C@H]1c1c(O)cc(CCCCC)cc1O [CBD, cannabidiol]	2.7	8.6	0.99	4.2	16.5	0.5	5.5	
CCCCCc1cc(O)c2c(c1)OC(C)(C)[C@@H]1CCC(C)=C[C@@H]21 [THC, Δ9-Tetrahydrocannabinol]	6.14		0.56	6.55	10.9	2.4	9.4	33
